Here are results for 31 molecules from patent US20050009840A1 (SUGEN, INC., priority 2003, published 2005).

Molecules are shown by their SMILES.

T1 sequence (P08581 1078-1345 limits assumed): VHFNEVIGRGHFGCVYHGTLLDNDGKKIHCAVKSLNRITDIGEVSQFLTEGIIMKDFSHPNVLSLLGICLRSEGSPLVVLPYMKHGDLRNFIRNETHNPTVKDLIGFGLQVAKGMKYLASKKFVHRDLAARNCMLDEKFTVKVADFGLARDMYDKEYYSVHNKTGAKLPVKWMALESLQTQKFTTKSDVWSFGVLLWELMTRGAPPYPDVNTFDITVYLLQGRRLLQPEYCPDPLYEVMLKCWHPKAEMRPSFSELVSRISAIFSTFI

The first test has as its target T1, Met kinase domain (GST fusion protein) (Homo sapiens, UniProt P08581).
T1 construct: Purified GST fusion protein containing the Met kinase domain
Nature of the test: Met transphosphorylation assay (ELISA, poly(glu-tyr) substrate).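 Also: Cell-free ELISA with plate-bound poly(Glu:Tyr 4:1) phosphorylated by GST-fused Met kinase domain plus ATP and Mn2+, phosphotyrosine detected by anti-phosphotyrosine antibody with HRP and ABTS read-out.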 The class given is biochemical. As to conditions: Table 2; read-out: Met IC50. For orientation: An ELISA detects its analyte on a solid surface through an enzyme-linked reagent.
As usually defined, the IC50 is the point on the concentration scale where inhibition reaches its midpoint. In the case of `CC(Oc1cc(-c2ccc(OC3CCN(C)CC3)cc2)cnc1N)c1c(Cl)ccc(F)c1Cl` (stereo not shown) [Example I-363, 3-[1-(2,6-Dichloro-3-fluoro-phenyl)-ethoxy]-5-[4-(1-methyl-piperidin-4-yloxy)-phenyl]-pyridin-2-ylamine], the IC50 worked out at 0.052 µM.

Take `CC(Oc1cc(-c2ccc(NS(C)(=O)=O)cc2)cnc1N)c1c(F)ccc(F)c1Cl` (stereo not shown) [Example I-364, N-(4-{6-Amino-5-[1-(2-chloro-3,6-difluoro-phenyl)-ethoxy]-pyridin-3-yl}-phenyl)-methanesulfonamide]: the IC50 amounted to 0.1 µM.

Still in this test, the particulars now being: plain numbers in column Met IC50 (μM) of Table 2; read-out: Met IC50.
On to `CC(Oc1cc(-c2ccc(N3CCCS3(=O)=O)cc2)cnc1N)c1c(F)ccc(F)c1Cl` (stereo not shown) [Example I-365, 3-[1-(2-Chloro-3,6-difluoro-phenyl)-ethoxy]-5-[4-(1,1-dioxo-1lambda*6*- isothiazolidin-2-yl)-phenyl]-pyridin-2-ylamine], for which the IC50 is 0.14 µM.

For the molecule `CC(Oc1cc(-c2ccc(NS(C)(=O)=O)cc2)cnc1N)c1c(Cl)ccc(F)c1Cl` (stereo not shown) [Example I-366, N-(4-{6-Amino-5-[1-(2,6-dichloro-3-fluoro-phenyl)-ethoxy]-pyridin-3-yl}-phenyl)-methanesulfonamide], the IC50 was found to be 0.076 µM.

In the case of `C[C@@H](Oc1cc(-c2ccc(NS(C)(=O)=O)cc2)cnc1N)c1c(F)ccc(F)c1Cl` [Example I-368, N-(4-{6-Amino-5-[(R)-1-(2-chloro-3,6-difluoro-phenyl)-ethoxy]-pyridin-3-yl}-phenyl)-methanesulfonamide], the IC50 was 0.066 µM.

As for `CC(Oc1cc(-c2ccsc2)cnc1N)c1c(Cl)ccc(F)c1Cl` (stereo not shown) [Example I-369, 3-[1-(2,6-Dichloro-3-fluoro-phenyl)-ethoxy]-5-thiophen-3-yl-pyridin-2-ylamine], the IC50 was determined as 0.055 µM.

`CC(Oc1cc(-c2cc3ccccc3s2)cnc1N)c1c(Cl)ccc(F)c1Cl` (stereo not shown) [Example I-370, 5-Benzo[b]thiophen-2-yl-3-[1-(2,6-dichloro-3-fluoro-phenyl)-ethoxy]-pyridin-2-ylamine]: the IC50 stood at 1.95 µM.

In the case of `CC(Oc1cc(-c2ccc(NC(=O)N3CCN(C)CC3)cc2)cnc1N)c1c(Cl)ccc(F)c1Cl` (stereo not shown) [Example I-371, 4-Methyl-piperazine-1-carboxylic acid (4-{6-amino-5-[1-(2,6-dichloro-3-fluoro-phenyl)-ethoxy]-pyridin-3-yl}-phenyl)-amide], the IC50 is 0.057 µM.

Turning to `CC(Oc1cc(-c2ccc(NC(=O)NCCN3CCCC3)cc2)cnc1N)c1c(Cl)ccc(F)c1Cl` (stereo not shown) [Example I-372, 1-(4-{6-Amino-5-[1-(2,6-dichloro-3-fluoro-phenyl)-ethoxy]-pyridin-3-yl}-phenyl)-3-(2-pyrrolidin-1-yl-ethyl)-urea], the IC50 came out at 0.21 µM.

As to `CC(Oc1cc(-c2ccc(NC(=O)NCCO)cc2)cnc1N)c1c(Cl)ccc(F)c1Cl` (stereo not shown) [Example I-373, 1-(4-{6-Amino-5-[1-(2,6-dichloro-3-fluoro-phenyl)-ethoxy]-pyridin-3-yl}-phenyl)-3-(2-hydroxy-ethyl)-urea], the IC50 was found to be 0.064 µM.

As to `CC(Oc1cc(-c2ccc(NC(=O)NCCN3CCOCC3)cc2)cnc1N)c1c(Cl)ccc(F)c1Cl` (stereo not shown) [Example I-374, 1-(4-{6-Amino-5-[1-(2,6-dichloro-3-fluoro-phenyl)-ethoxy]-pyridin-3-yl}-phenyl)-3-(2-morpholin-4-yl-ethyl)-urea], the IC50 is 0.062 µM.

With `CC(Oc1cc(-c2ccc(NC(=O)N3CC[C@@H](N)C3)cc2)cnc1N)c1c(Cl)ccc(F)c1Cl` (stereo partly drawn) [Example I-375, (R)-3-Amino-pyrrolidine-1-carboxylix acid (4-{6-amino-5-[1-(2,6-dichloro-3-fluoro-phenyl)-ethoxy]-pyridin-3-yl}-phenyl)-amide], the IC50 was determined as 0.053 µM.

Consider `CC(Oc1cc(-c2ccc(NC(=O)N3CC[C@H](N)C3)cc2)cnc1N)c1c(Cl)ccc(F)c1Cl` (stereo partly drawn) [Example I-376, (S)-3-Amino-pyrrolidine-1-carboxylic acid (4-{6-amino-5-[1-(2,6-dichloro-3-fluoro-phenyl)-ethoxy]-pyridin-3-yl}-phenyl)-amide], for which the IC50 amounted to 0.052 µM.

With `CC(Oc1cc(-c2ccc(NC(=O)NC3CCN(C)CC3)cc2)cnc1N)c1c(Cl)ccc(F)c1Cl` (stereo not shown) [Example I-377, 1-(4-{6-Amino-5-[1-(2,6-dichloro-3-fluoro-phenyl)-ethoxy]-pyridin-3-yl}-phenyl)-3-(1-methyl-pipendin-4-yl)-urea], the IC50 was 0.04 µM.

With `CC(Oc1cc(-c2ccc(NC(=O)NC3CCN(C)CC3)cc2)cnc1N)c1c(F)ccc(F)c1Cl` (stereo not shown) [Example I-378, 1-(4-{6-Amino-5-[1-(2-chloro-3,6-difluoro-phenyl)-ethoxy]-pyridin-3-yl}-phenyl)-3-(1-methyl-pipendin-4-yl)-urea], the IC50 was found to be 0.038 µM.

With `CC(Oc1cc(-c2ccc(NC(=O)N3CC[C@@H](N)C3)cc2)cnc1N)c1c(F)ccc(F)c1Cl` (stereo partly drawn) [Example I-379, (R)-3-Amino-pyrrolidine-1-carboxylic acid (4-{6-amino-5-[1-(2-chloro-3,6-difluoro-phenyl)-ethoxy]-pyridin-3-yl}-phenyl)-amide], the half-inhibitory concentration (IC50) turned out to be 0.069 µM.

For the molecule `CC(Oc1cc(-c2ccc(NC(=O)N3CC[C@H](N)C3)cc2)cnc1N)c1c(F)ccc(F)c1Cl` (stereo partly drawn) [Example I-380, (S)-3-Amino-pyrrolidine-1-carboxylic acid (4-{6-amino-5-[1-(2-chloro-3,6-difluoro-phenyl)-ethoxy}-pyridin-3-yl}-phenyl)-amide], the IC50 is 0.075 µM.

Turning to `CC(Oc1cc(-c2ccc(NC(=O)NCCO)cc2)cnc1N)c1c(F)ccc(F)c1Cl` (stereo not shown) [Example I-381, 1-(4-{6-Amino-5-[1-(2-chloro-3,6-difluoro-phenyl)-ethoxy]-pyridin-3-yl}-phenyl)-3-(2-hydroxy-ethyl)-urea], the IC50 came out at 0.11 µM.

`CC(Oc1cc(-c2ccc(NC(=O)N3CCN(C)CC3)cc2)cnc1N)c1c(F)ccc(F)c1Cl` (stereo not shown) [Example I-382, 4-Methyl-piperazine-1-carboxylic acid (4-{6-amino-5-[1-(2-chloro-3,6-difluoro-phenyl)-ethoxy]-pyridin-3-yl}-phenyl)-amine]: the IC50 amounted to 0.082 µM.

Consider `CC(Oc1cc(-c2ccc(NC(=O)NCCN3CCCC3)cc2)cnc1N)c1c(F)ccc(F)c1Cl` (stereo not shown) [Example I-383, 1-(4-{6-Amino-5-[1-(2-chloro-3,6-difluoro-phenyl)-ethoxy]-pyridin-3-yl}-phenyl)-3-(2-pyrrolidin-1-yl-ethyl)-urea], for which the half-inhibitory concentration (IC50) is 0.11 µM.

As to `CC(Oc1cc(-c2ccc(NC(=O)NCCN3CCOCC3)cc2)cnc1N)c1c(F)ccc(F)c1Cl` (stereo not shown) [Example I-384, 1-(4-{6-Amino-5-[1-(2-chloro-3,6-difluoro-phenyl)-ethoxy]-pyridin-3-yl}-phenyl)-3-(2-morpholin-4-yl-ethyl)-urea], the IC50 is 0.13 µM.

Take `CC(Oc1cc(-c2ccc(NC(=O)N3CCC[C@@H]3CN3CCCC3)cc2)cnc1N)c1c(F)ccc(F)c1Cl` (stereo partly drawn) [Example I-385, (R)-2-Pyrrolidin-1-ylmethyl-pyrrolidine-1-carboxylic acid (4-{6-amino-5-[1-(2-chloro-3,6-difluoro-phenyl)-ethoxy]-pyridin-3-yl}-phenyl)-amide]: the IC50 worked out at 0.13 µM.

For `CC(Oc1cc(-c2cccc(C(=O)N3C[C@@H](C)N[C@@H](C)C3)c2)cnc1N)c1c(Cl)cccc1Cl` (stereo partly drawn) [Example I-387, (3-{6-Aminno-5-[1-(2,6-dichloro-phenyl)-ethoxy]-pyridin-3-yl}-phenyl)-((3R,5S)-3,5-dimethyl-piperazin-1-yl)-methanone], the IC50 is 0.16 µM.

Take `CC(Oc1cc(-c2cccc(C(=O)N3CCC(N4CCCC4)CC3)c2)cnc1N)c1c(Cl)cccc1Cl` (stereo not shown) [Example I-388, (3-{6-Amino-5-[1-(2,6-dichloro-phenyl)-ethoxy]-pyridin-3-yl}-phenyl)-(4-pyrrolidin-1-yl-piperidin-1-yl)-methanone]: the IC50 came out at 0.1 µM.

On to `CC(Oc1cc(-c2cccc(C(=O)NCCN3CCCC3)c2)cnc1N)c1c(Cl)cccc1Cl` (stereo not shown) [Example I-389, 3-{6-Amino-5-[1-(2,6-dichloro-phenyl)-ethoxy]-pyridin-3-yl}-N-(2-pyrrolidin-1-yl-ethyl)-benzamide], for which the IC50 is 0.13 µM.

Consider `CC(Oc1cc(-c2cccc(C(=O)NCCN3CCOCC3)c2)cnc1N)c1c(Cl)cccc1Cl` (stereo not shown) [Example I-390, 3-{6-Amino-5-[1-(2,6-dichloro-phenyl)-ethoxy]-pyridin-3-yl}-N-(2-morpholin-4-yl-ethyl)-benzamide], for which the 50% inhibitory concentration (IC50) came out at 0.12 µM.

As for `CC(Oc1cc(-c2cccc(C(=O)N3CCC[C@H]3CN3CCCC3)c2)cnc1N)c1c(Cl)cccc1Cl` (stereo partly drawn) [Example I-391, (3-{6-Amino-5-[1-(2,6-dichloro-phenyl)-ethoxy]-pyridin-3-yl}-phenyl)-((S)-2-pyrrolidin-1-ylmethyl-pyrrolidin-1-yl)-methanone], the IC50 was 0.098 µM.

On to `CC(Oc1cc(-c2cccc(C(=O)NCCCN3CCCC3)c2)cnc1N)c1c(Cl)cccc1Cl` (stereo not shown) [Example I-392, 3-{6-Amino-5-[1-(2,6-dichloro-phenyl)-ethoxy]-pyridin-3-yl}-N-(3-pyrrolidin-1-yl-propyl)-benzamide], for which the IC50 was 0.072 µM.

With `CC(=O)N1CCN(CCNC(=O)c2cccc(-c3cnc(N)c(OC(C)c4c(Cl)cccc4Cl)c3)c2)CC1` (stereo not shown) [Example I-393, N-[2-(4-Acetyl-piperazin-1-yl)-ethyl]-3-{6-amino-5-[1-(2,6-dichloro-phenyl)-ethoxy]-pyridin-3-yl}-benzamide], the IC50 was found to be 0.079 µM.

Turning to `CC(Oc1cc(-c2cccc(C(=O)NC3CCN(C)CC3)c2)cnc1N)c1c(Cl)cccc1Cl` (stereo not shown) [Example I-394, 3-{6-Amino-5-[1-(2,6-dichloro-phenyl)-ethoxy]-pyridin-3-yl}-N-(1-methyl-piperidin-4-yl)-benzamide], the IC50 was 0.061 µM.

On to `CC(Oc1cc(-c2cccc(C(=O)N3CCN(C)CC3)c2)cnc1N)c1c(Cl)cccc1Cl` (stereo not shown) [Example I-395, (3-{6-amino-5-[1-(2,6-dichloro-phenyl)-ethoxy]-pyridin-3-yl}-phenyl)-(4-methyl-piperazin-1-yl)-methanone], for which the IC50 came to 0.058 µM.
